Entries after “also recorded” stand apart in the source; their conditions may differ.
What was measured:
[1] = test system: subjects undergoing elective total knee replacement surgery; test: Phase 2 study after elective total knee replacement: bleeding events (safety); type: in vivo, human; settings: safety set, on-treatment
Description: The principal safety outcome was any bleeding, which was defined as the composite of major, clinically relevant nonmajor, and minimal bleeding. Secondary safety outcomes were: (a) major bleeding, (b) clinically relevant nonmajor bleeding, (c) clinically relevant bleeding, defined as the composite of major and clinically relevant nonmajor bleeding, and (d) minimal bleeding. Bleeding was classified as major if it was overt and associated with a decrease in hemoglobin of 2 g/dL or more or necessitated transfusion of 2 or more units of blood with a temporal association within 24 to 48 hours of the bleed; or if it occurred in a critical area or organ or contributed to death. […] Overt bleeding not meeting the criteria for major bleeding, but that necessitated medical examination or intervention or had clinical consequences, was classified as clinically relevant nonmajor bleeding. Bleeding not meeting the criteria for major or clinically relevant nonmajor bleeding was classified as minimal bleeding (Schulman et al., Definition of major bleeding in clinical investigations of antihemostatic medicinal products in surgical patients. J Thromb Haemost 2010; 8:202-4).
Analysis of safety outcomes was performed in the safety population, which included all randomized patients who received at least one dose of study medication; the time for analysis included the on-treatment period plus 2 days. For each bleeding outcome, the rate in each milvexian group was compared with that in the enoxaparin group with the same methods used for evaluation of the secondary efficacy outcomes. The Kaplan-Meier method was used to assess the time to the first occurrence of any bleeding with milvexian or enoxaparin.
The key secondary objective of the study was to assess the dose-response trend of milvexian for the occurrence of Any Bleeding events during the treatment period. Any Bleeding was defined as the composite of major bleeding according to the International Society on Thrombosis and Haemostasis (ISTH) criteria modified for the surgical setting, clinically relevant nonmajor bleeding events or minimal bleeding events as assessed by the clinical events committee (CEC).

[2] = test system: electrically induced carotid artery thrombus (ECAT) in rabbits; test: Treatment rabbit ECAT model (dosing 15 minutes after vessel injury); type: in vivo; settings: for carotid blood flow at 90 minutes (% of control carotid blood flow): n=6; for reduction in thrombus weight: treatment ECAT
Procedure: The rabbit ECAT model as described by Wong et al., Nonpeptide factor Xa inhibitors: II.
Male New Zealand white rabbits were anesthetized with ketamine (50 mg/kg+50 mg/kg/h intramuscularly) and xylazine (10 mg/kg+10 mg/kg/h intramuscularly). Thrombosis was induced by electrical stimulation of the control carotid artery for 3 minutes at 4 mA using an external stainless-steel bipolar electrode. Carotid blood flow was measured with an electromagnetic flow probe continuously over a 90-minute period to monitor thrombosis induced occlusion. Integrated carotid blood flow was measured by the area under the flowtime curve (see Wong et al.). In addition, thrombus from the injured artery was removed, blotted twice on a weighing paper to remove residual fluid, and weighed.
To achieve a stable plasma level with minimum experimental variability, compounds were administered by IV infusion. […] The IV infusion was continued throughout the experiment for both models.
(§1) Integrated blood flow, thrombus weight, aPTT (activated partial thromboplastin time), TT (thrombin time), and PT (prothrombin time) were also measured.

[3] = test system: aPTT, TT, and PT; test: Ex vivo aPTT, TT and PT in ECAT rabbits; parameters: species or system rabbit
Procedure: as §1

[4] = Half-life of milvexian; settings: human, in vivo
[5] = test system: aPTT; test: aPTT prolongation in healthy volunteers; type: in vivo, human; settings: 50-mg once daily dose, for about 24 hours
[6] = milvexian 50 mg BID, listed as Milvexian
[7] = milvexian 100 mg BID, listed as Milvexian
[8] = milvexian 200 mg once daily, listed as Milvexian
[9] = milvexian all regimens combined
[10] = milvexian combined BID regimens

## C[C@@H]1CCC[C@H](n2cnc(-c3cc(Cl)ccc3-n3cc(Cl)nn3)cc2=O)c2cc(ccn2)-c2c(cnn2C(F)F)NC1=O [milvexian, (5R,9S)-9-(4-(5-chloro-2-(4-chloro-1H-1,2,3-triazol-1-yl)phenyl)-6-oxopyrimidin-1(6H)-yl)-21-(difluoromethyl)-5-methyl-21H-3-aza-1(4,2)-pyridina-2(5,4)-pyrazolacyclononaphan-4-one]
[1]; milvexian 25 mg BID
  Any Bleeding %: 1.4%
  Any Bleeding RR vs Enox: 0.33
  Any Bleeding n: 2 n
  Major+CRNM bleeding %: 0%
  Major+CRNM bleeding n: 0 n
  Minimal Bleeding %: (1.4%)
  Minimal Bleeding RR vs Enox: 0.50
  Minimal Bleeding n: 2 n
[1]; milvexian 25 mg BID, listed as Milvexian
  Any Bleeding %: (1.4%)
[1]; milvexian 25 mg once daily
  Any Bleeding %: 0%
  Any Bleeding n: 0 n
  Major+CRNM bleeding n: 0 n
  Minimal Bleeding n: 0 n
[1]; milvexian 50 mg BID
  Any Bleeding %: 4.7%
  Any Bleeding RR vs Enox: 1.15
  Any Bleeding n: 7 n
  Major+CRNM bleeding %: 1.4%
  Major+CRNM bleeding RR vs Enox: 0.79
  Major+CRNM bleeding n: 2 n
  Minimal Bleeding %: (3.4%)
  Minimal Bleeding RR vs Enox: 1.23
  Minimal Bleeding n: 5 n
[1]; [6]
  Any Bleeding %: (4.7%)
  Major+CRNM bleeding %: (1.4%)
[1]; milvexian 50 mg once daily
  Any Bleeding %: (5.3%)
  Any Bleeding RR vs Enox: 1.17
  Any Bleeding n: 8 n
  Major+CRNM bleeding %: 1.3%
  Major+CRNM bleeding RR vs Enox: 0.68
  Major+CRNM bleeding n: 2 n
  Minimal Bleeding %: (4.0%)
  Minimal Bleeding RR vs Enox: 1.35
  Minimal Bleeding n: 6 n
[1]; milvexian 50 mg once daily, listed as Milvexian
  Major+CRNM bleeding %: (1.3%)
[1]; milvexian 100 mg BID
  Any Bleeding %: 4.7%
  Any Bleeding RR vs Enox: 1.14
  Any Bleeding n: 7 n
  Major+CRNM bleeding %: 0.7%
  Major+CRNM bleeding RR vs Enox: 0.39
  Major+CRNM bleeding n: 1 n
  Minimal Bleeding %: (4.7%)
  Minimal Bleeding RR vs Enox: 1.71
  Minimal Bleeding n: 7 n
[1]; [7]
  Any Bleeding %: (4.7%)
  Major+CRNM bleeding %: (0.7%)
[1]; milvexian 200 mg BID
  Any Bleeding %: (3.4%)
  Any Bleeding RR vs Enox: 0.81
  Any Bleeding n: 5 n
  Major+CRNM bleeding %: 0.7%
  Major+CRNM bleeding RR vs Enox: 0.39
  Major+CRNM bleeding n: 1 n
  Minimal Bleeding %: (2.7%)
  Minimal Bleeding RR vs Enox: 0.96
  Minimal Bleeding n: 4 n
[1]; milvexian 200 mg BID, listed as Milvexian
  Major+CRNM bleeding %: (0.7%)
[1]; milvexian 200 mg once daily
  Any Bleeding %: 6.1%
  Any Bleeding RR vs Enox: 1.51
  Any Bleeding n: 9 n
  Major+CRNM bleeding %: 0.7%
  Major+CRNM bleeding RR vs Enox: 0.40
  Major+CRNM bleeding n: 1 n
  Minimal Bleeding %: (5.4%)
  Minimal Bleeding RR vs Enox: 2.01
  Minimal Bleeding n: 8 n
[1]; [8]
  Any Bleeding %: (6.1%)
  Major+CRNM bleeding %: (0.7%)
[1]; [9]
  Any Bleeding %: 4.1%
  Any Bleeding n: 38 n
  Any bleeding RR (CI) vs enoxaparin: 0.99 (0.53-1.85)
  Clinically relevant non-major Bleeding %: 0.8%
  Clinically relevant non-major Bleeding RR (CI) vs enoxaparin: 0.55 (0.16-1.85)
  Clinically relevant non-major Bleeding n: 7 n
  Major Bleeding n: no major bleeds; also recorded: No CEC adjudicated major bleeding
  Major bleeding or CRNM Bleeding RR (CI) vs enoxaparin: 0.44 (0.14-1.35)
  Major+CRNM bleeding %: 0.8%
  Major+CRNM bleeding n: 7 n
  Minimal Bleeding %: 3.5%
  Minimal Bleeding RR (CI) vs enoxaparin: 1.26 (0.59-2.67)
  Minimal Bleeding n: 32 n
[1]; milvexian all regimens combined, listed as Milvexian
  Major Bleeding n: 0 n
[1]; [10]
  Any Bleeding %: 3.5%
  Any Bleeding n: 21 n
  Any bleeding RR (CI) vs enoxaparin: 0.86 (0.43-1.71)
  Clinically relevant non-major Bleeding %: 0.7%
  Clinically relevant non-major Bleeding RR (CI) vs enoxaparin: 0.49 (0.12-1.96)
  Clinically relevant non-major Bleeding n: 4 n
  Major Bleeding n: 0 n
  Major bleeding or CRNM Bleeding RR (CI) vs enoxaparin: 0.39 (0.11-1.44)
  Major+CRNM bleeding %: 0.7%
  Major+CRNM bleeding n: 4 n
  Minimal Bleeding %: 3.0%
  Minimal Bleeding RR (CI) vs enoxaparin: 1.10 (0.49-2.49)
  Minimal Bleeding n: 18 n
[2]; 0.25+0.17 mg/kg+mg/kg/h IV at 15 minutes after initiation of thrombosis
  carotid blood flow at 90 minutes (% of control carotid blood flow): 39±10%
[2]; 0.25+0.17 mg/kg+mg/kg/h IV
  reduction in thrombus weight: 25±7%
[2]; 1+0.67 mg/kg+mg/kg/h IV at 15 minutes after initiation of thrombosis
  carotid blood flow at 90 minutes (% of control carotid blood flow): 66±2%
[2]; 1+0.67 mg/kg+mg/kg/h IV
  reduction in thrombus weight: 61±6%
[3]; prevention ECAT rabbits
  ex vivo PT: did not alter TT and PT significantly
  ex vivo TT: did not alter TT and PT significantly
  ex vivo aPTT: elevated aPTT significantly at the highest 2 doses
[3]; rabbit ECAT
  prolongation of aPTT needed to achieve 50% thrombus weight reduction: 1.6 fold
[4]
  half-life: ~11 h
[5]
  prolongation of aPTT: 1.5 fold

From patent US20250099466A1 (BRISTOL-MYERS SQUIBB COMPANY, priority 2021, published 2025)
